Square brackets hold non-standard residues; d marks the D form. Ends that are not written are not given here.
Experiments:
human GLP-1R [1] = biological target: T1, human GLP-1R (Homo sapiens, UniProt P43220); experiment: cAMP FRET agonism at GLP-1R in H188-GLP-1R transduced HEK293 cells; type: cell-based; conditions: FRET ratio tracking cAMP, Fig. 1A
Method: H188 virally transduced HEK293 cells stably expressing human GLP-1R were obtained from Novo Nordisk A/S for use in FRET assays. HEK293 C24 cells stably expressing the H188 FRET reporter were obtained by G418 selection and grown in monolayers to ∼70% confluency in 100 cm^2 tissue culture dishes and were then transfected with plasmids (11 μg/dish) encoding human GLP-1R, human Y2-R, or human Y1-R. Transfected cells were then incubated for 48 h in fresh culture media. For real-time FRET kinetic assays, cells were harvested, resuspended in 21 mL of SES buffer, and plated at 196 μL per well. […] Y1-R and Y2-R agonism to stimulate Gi proteins and to inhibit adenylyl cyclase was monitored by detecting the ability of PYY peptides, GEP44, or GEP12 to counteract the ability of Adenosine (acting through endogenous A2B receptor and Gs proteins) to increase levels of cAMP. For these assays, increased levels of cAMP were measured as an increase of the 485/535 nm FRET ratio serving as a readout for binding of cAMP to the H188 biosensor that is based on the exchange protein activated by cAMP[15].

human GLP-1R [2] = biological target: T1, human GLP-1R; experiment: SPR binding to His-tagged GLP-1R on NTA sensor; conditions: in-house SPR, 0.1–100 nM, duplicate
human Y2-R [3] = biological target: T2, human Y2-R (Homo sapiens, UniProt P49146); experiment: Y2-R agonism: counteraction of adenosine-stimulated cAMP (FRET) in HEK293 C24 cells transfected with Y2-R; type: cell-based; conditions: HEK293 C24 cells transiently transfected with Y2-R, 20 min pre-treatment; also reported previously [16]; read-out: IC50, inhibition of adenosine-stimulated cAMP production at Y2-R
T2 sequence (P49146 1-381): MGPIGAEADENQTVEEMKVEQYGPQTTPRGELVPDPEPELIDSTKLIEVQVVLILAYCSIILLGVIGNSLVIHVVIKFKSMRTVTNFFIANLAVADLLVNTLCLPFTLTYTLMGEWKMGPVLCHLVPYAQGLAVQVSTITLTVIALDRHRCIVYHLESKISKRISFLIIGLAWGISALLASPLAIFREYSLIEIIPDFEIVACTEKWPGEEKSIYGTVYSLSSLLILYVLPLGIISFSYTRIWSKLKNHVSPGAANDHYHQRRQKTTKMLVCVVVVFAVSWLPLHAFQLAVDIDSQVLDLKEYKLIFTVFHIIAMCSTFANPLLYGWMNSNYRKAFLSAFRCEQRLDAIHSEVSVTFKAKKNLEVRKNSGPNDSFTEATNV
Method: H188 virally transduced HEK293 cells stably expressing human GLP-1R were obtained from Novo Nordisk A/S for use in FRET assays. HEK293 C24 cells stably expressing the H188 FRET reporter were obtained by G418 selection and grown in monolayers to ∼70% confluency in 100 cm^2 tissue culture dishes and were then transfected with plasmids (11 μg/dish) encoding human GLP-1R, human Y2-R, or human Y1-R. Transfected cells were then incubated for 48 h in fresh culture media. For real-time FRET kinetic assays, cells were harvested, resuspended in 21 mL of SES buffer, and plated at 196 μL per well. Plated cells were pretreated with 4 μL of agonist, or antagonist (Ex9-39 (GLP-1R antagonist) or BIIE0246 (Y2-R antagonist)), at a given target concentration and incubated for 20 min before performing the assay. Y1-R and Y2-R agonism to stimulate Gi proteins and to inhibit adenylyl cyclase was monitored by detecting the ability of PYY peptides, GEP44, or GEP12 to counteract the ability of Adenosine (acting through endogenous A2B receptor and Gs proteins) to increase levels of cAMP. For these assays, increased levels of cAMP were measured as an increase of the 485/535 nm FRET ratio serving as a readout for binding of cAMP to the H188 biosensor that is based on the exchange protein activated by cAMP[15].

human Y2-R [4] = biological target: T2, human Y2-R; experiment: Radioligand competitive binding assay at Y2-R in CHO-K1 cells; conditions: 1 pM–1 µM, duplicate independent runs, read-out: half-maximal binding at Y2-R
human Y1-R = biological target: T3, human Y1-R (Homo sapiens, UniProt P25929); experiment: SPR binding at Y1-R; conditions: in-house SPR, 4 pM–19 µM; read-out: half-maximal binding at Y1-R
T3 construct: His tag; purchased antibodies-online Inc. ABIN7086253
T3 sequence (P25929 1-384): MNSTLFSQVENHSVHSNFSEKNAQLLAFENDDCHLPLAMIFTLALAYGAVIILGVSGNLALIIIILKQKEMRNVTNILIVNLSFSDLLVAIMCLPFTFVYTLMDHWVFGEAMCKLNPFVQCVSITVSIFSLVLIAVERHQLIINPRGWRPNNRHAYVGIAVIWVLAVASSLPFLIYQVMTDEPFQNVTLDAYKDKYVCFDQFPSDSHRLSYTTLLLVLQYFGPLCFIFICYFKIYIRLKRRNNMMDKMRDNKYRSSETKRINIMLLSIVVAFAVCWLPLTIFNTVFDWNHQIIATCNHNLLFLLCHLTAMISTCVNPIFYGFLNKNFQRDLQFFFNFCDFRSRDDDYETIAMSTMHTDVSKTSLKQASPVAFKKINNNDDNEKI
Method: Peptides were precipitated with cold (4 °C) diethyl ether and purified on an Agilent 1200 series High-Performance Liquid Chromatography (HPLC) instrument (10–75% HPLC-grade acetonitrile for 20 min at a 2 mL/min flow rate over an Agilent Zorbax C18 column (5 µm, 9.4 × 250 mm) tracked at 220, 254, and 280 nm. Peptides were purified to > 95%. Peptide binding was assayed by EuroscreenFast (Gosselies, Belgium) or in-house with a Nicoya Open Surface Plasmon Resonance (SPR) instrument. Internalization and β-arrestin recruitment assays were performed by Eurofins Discovery (Fremont, CA, USA).
Peptide binding to human Y1-R was performed in-house by SPR.

human GLP-1R [5] = biological target: T1, human GLP-1R; experiment: Agonist-activated internalization of GLP-1R; type: cell-based; conditions: dose–response 30 pM–1 µM, duplicate
Method: Human GLP-1R (Gs-coupled) cell-based agonist-activated internalization assays were performed by Eurofins Discovery.

human GLP-1R [6] = biological target: T1, human GLP-1R; experiment: β-arrestin-2 recruitment at GLP-1R; type: cell-based; conditions: dose–response 5.51 pM–551 nM, duplicate
DIO Wistar rats = experiment: Dose escalation study of food intake and tolerability in diet-induced obese male rats; type: in vivo, rat; conditions: s.c. once daily
Method: Wistar rats purchased from Charles River Laboratories (Wilmington, MA) were used in this study. The rats were provided with ad libitum access to food and water and were kept on a 12 h light/12 h dark cycle. For all other experiments, male rats (51–75 g; approximately 4 weeks of age) were fed a diet with 60% of the calories provided by fat (D12492; Research Diets, Inc; New Brunswick, NJ; 5.21 kcal/g) for approximately five months before the start of the study generate diet-induced obesity (DIO). Animals were individually housed in a temperature (22 ± 1 °C) and humidity-controlled (57 ± 4%) room. All body weight measurements were taken just before the start of the dark cycle.
GEP44 stock solutions were prepared using sterile ultra-pure H2O and gently agitated at 4 °C for > 24 h and then aliquoted and stored at − 20 °C. […] GEP12 (aliquots up to 5 mg) was dissolved in 100 µL DMSO and mixed at 1000 rpm for three min to create a stock solution. Stock solutions were diluted to working solutions in 0.9% normal saline, resulting in a final DMSO concentration of < 2%. […]
Rats were singly housed in BioDAQ cages and allowed to acclimate for at least 10 days before the start of this study. […] Body weight was assessed daily just before the start of the dark cycle. Food and water were available ad libitum and consumption was monitored continuously.

[7] = test system: lean and diet-induced obese (DIO) rats; parameters: method as in PMID 33449689; conditions: rat, in vivo; cited from earlier work
patients = conditions: cited from earlier work

T1 sequence (P43220 24-463): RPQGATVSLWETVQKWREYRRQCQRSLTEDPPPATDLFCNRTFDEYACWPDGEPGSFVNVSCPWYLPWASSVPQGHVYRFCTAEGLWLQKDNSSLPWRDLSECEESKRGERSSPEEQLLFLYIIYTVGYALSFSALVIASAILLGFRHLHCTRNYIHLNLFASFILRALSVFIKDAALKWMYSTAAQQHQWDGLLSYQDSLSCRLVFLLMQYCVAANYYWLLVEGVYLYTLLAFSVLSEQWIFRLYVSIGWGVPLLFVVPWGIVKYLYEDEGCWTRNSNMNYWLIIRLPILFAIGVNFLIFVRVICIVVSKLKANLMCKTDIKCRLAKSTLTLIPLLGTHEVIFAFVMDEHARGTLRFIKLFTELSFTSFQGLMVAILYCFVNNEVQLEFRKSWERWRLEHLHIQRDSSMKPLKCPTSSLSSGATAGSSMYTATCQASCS

Substance: F[dS]QGTFTSDLSKYLEEEAVREFIAWLKNGGPSRHYLNLVTRQRY-NH2 [GEP12]
- EC50 (human GLP-1R [1]): 17.3 nM
- IC50 (human GLP-1R [2]): 19.2 nM

Substance: H[dS]QGTFTSDLSKYLEEEAVREFIAWLKNGGPSRHYLNLVTRQRY-NH2 [GEP44]
- IC50 (human Y2-R [3]): 34 nM
- IC50 (human Y2-R [4]): 65.8 nM
- IC50 (human Y1-R): 86.6 nM
- EC50 (human GLP-1R [5]): 3.97 nM
- EC50 (human GLP-1R [6]): 1.59 nM
- no observed adverse effect level (NOAEL) (DIO Wistar rats): 20 nmol/kg/day
- visceral malaise [7]: no visceral malaise

Substance: tirzepatide
- patients achieving a weight loss of 20% and more (patients; 10 or 15 mg per week): at least 50%
- diarrhea, incidence (patients; human, in vivo): 15–17%
- discontinuation of treatment due to gastrointestinal symptoms (patients; human, in vivo): 3–7%
- nausea, incidence (patients; human, in vivo): 12–24%
- vomiting, incidence (patients; human, in vivo): 6–10%
